The results in this text go back to patent US9434925B2, “Genetically modified mesenchymal stem cell that express an exogenous cytotoxic protein” (APCETH GMBH & CO. KG, priority 2009, dated 2016).

The assay has as its system human MSCs carrying pLenti6 TK RANTES (HSV tk under RANTES promoter). The assay can be described thus: Specific cell death of induced genetically modified MSCs after ganciclovir treatment. The format is cell-based. The note with it: 9 days TNFα (10 ng/ml) and IFNγ (10 ng/ml), then 3 days 100 μM ganciclovir. As to the method:
Human MSCs were incubated over night with replication deficient lentiviruses carrying the vector pLenti6 TK RANTES harboring the HSV tk gene under the control of the RANTES promoter and the blasticidin resistance gene under the control of the SV40 promoter (multiplicity of infection (MOI): 10) (see FIG. 8).
After overnight incubation the virus containing media was removed and replaced with fresh media. The next day blasticidin (6 μg/ml) was added to the cells to select for genetically modified MSCs. Culture media, including blasticidin was changed every 3 to 4 days for a minimum of 6 days.
Genetically modified cells (50000 cells in per 6 well) that were generated as described above were treated for 9 days with TNFα (10 ng/ml) and IFNγ (10 ng/ml) with addition of fresh cytokines every 3 days. Subsequently the cells were incubated for 3 days with 100 μM ganciclovir.

On to `Nc1nc(O)c2ncn(COC(CO)CO)c2n1` [ganciclovir], for which the “survival of genetically modified MSCs” value is “not surviving”.
